Experimental data from PubChem BioAssay AID1963425 (Molecular Pharmacology Branch, DTP, NCI, 2024).

System: 323965-272-R-J2-PDC complex spheroid growth, % test/control
Assay: Anticancer human tumor 323965-272-R-J2-PDC patient-derived pancreatic carcinoma cell line growth inhibition [Asc]
Conditions: for IC50: curve of first compound; for viability, T/C: stronger effect = lower value
Outline: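 Stromal components (HUVEC and hMSC) are co-assembled with the cancer cells into multicellular spheroids. Drugs are then added singly or paired, at concentrations falling by half-log increments from a clinically achievable maximum, capped at 10 microM without known Cmax.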
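Note: compound exposure lasted 7 days starting three days after spheroid seeding.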
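Throughout, for viability, T/C: 100% = DMSO vehicle control wells with viability set relative to vehicle.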

Compound: CCN1CCN(Cc2ccc(Nc3ncc(F)c(-c4cc(F)c5nc(C)n(C(C)C)c5c4)n3)nc2)CC1 + CNC(C)C(=O)NC1CN(S(=O)(=O)c2cccc(S(=O)(=O)N3CCC4CCC(C(=O)NC(c5ccccc5)c5ccccc5)N4C(=O)C(NC(=O)C(C)NC)C3)c2)CCC2CCC(C(=O)NC(c3ccccc3)c3ccccc3)N2C1=O
- IC50 (second compound 0.00316 µM): > 1000 nM
- IC50 (second compound 0.01 µM): > 1000 nM
- IC50 (second compound 0.0316 µM): > 1000 nM
- IC50 (second compound 0.1 µM): > 1000 nM
- IC50 (second compound 0.316 µM): > 1000 nM
- IC50 (second compound 1 µM): > 1000 nM
- viability, T/C (second compound 0.00316 µM, first compound 0.00316 µM): 108%
- viability, T/C (second compound 0.00316 µM, first compound 0.01 µM): 88.7%
- viability, T/C (second compound 0.00316 µM, first compound 0.0316 µM): 96.8%
- viability, T/C (second compound 0.00316 µM, first compound 0.1 µM): 83.6%
- viability, T/C (second compound 0.00316 µM, first compound 0.316 µM): 81.5%
- viability, T/C (second compound 0.00316 µM, first compound 1 µM): 77.2%
- viability, T/C (second compound 0.01 µM, first compound 0.00316 µM): 98.1%
- viability, T/C (second compound 0.01 µM, first compound 0.01 µM): 95%
- viability, T/C (second compound 0.01 µM, first compound 0.0316 µM): 97.5%
- viability, T/C (second compound 0.01 µM, first compound 0.1 µM): 70%
- viability, T/C (second compound 0.01 µM, first compound 0.316 µM): 85.6%
- viability, T/C (second compound 0.01 µM, first compound 1 µM): 79%
- viability, T/C (second compound 0.0316 µM, first compound 0.00316 µM): 101%
- viability, T/C (second compound 0.0316 µM, first compound 0.01 µM): 95.3%
- viability, T/C (second compound 0.0316 µM, first compound 0.0316 µM): 87.2%
- viability, T/C (second compound 0.0316 µM, first compound 0.1 µM): 76.1%
- viability, T/C (second compound 0.0316 µM, first compound 0.316 µM): 75%
- viability, T/C (second compound 0.0316 µM, first compound 1 µM): 72.4%
- viability, T/C (second compound 0.1 µM, first compound 0.00316 µM): 104%
- viability, T/C (second compound 0.1 µM, first compound 0.01 µM): 106%
- viability, T/C (second compound 0.1 µM, first compound 0.0316 µM): 96.6%
- viability, T/C (second compound 0.1 µM, first compound 0.1 µM): 76.5%
- viability, T/C (second compound 0.1 µM, first compound 0.316 µM): 78.4%
- viability, T/C (second compound 0.1 µM, first compound 1 µM): 82.5%
- viability, T/C (second compound 0.316 µM, first compound 0.00316 µM): 102%
- viability, T/C (second compound 0.316 µM, first compound 0.01 µM): 101%
- viability, T/C (second compound 0.316 µM, first compound 0.0316 µM): 95.4%
- viability, T/C (second compound 0.316 µM, first compound 0.1 µM): 69.6%
- viability, T/C (second compound 0.316 µM, first compound 0.316 µM): 70.6%
- viability, T/C (second compound 0.316 µM, first compound 1 µM): 83.6%
- viability, T/C (second compound 1 µM, first compound 0.00316 µM): 87.4%
- viability, T/C (second compound 1 µM, first compound 0.01 µM): 85.9%
- viability, T/C (second compound 1 µM, first compound 0.0316 µM): 90.6%
- viability, T/C (second compound 1 µM, first compound 0.1 µM): 67.7%
- viability, T/C (second compound 1 µM, first compound 0.316 µM): 79.7%
- viability, T/C (second compound 1 µM, first compound 1 µM): 74.2%
